Values of other authors, collected in paper PMC5891061, “Electrophysiological mechanisms of vandetanib-induced cardiotoxicity: Comparison of action potentials in rabbit Purkinje fibers and pluripotent stem cell-derived cardiomyocytes” (PLoS ONE, 2018).

Key:
[1] = test system: hiPSC-CMs; settings: cited from earlier work
[2] = target: INa in hiPSC-CMs (Homo sapiens, UniProt Q14524); settings: hiPSC-CMs compared with HEK293 cells; cited from earlier work
Chain of INa in hiPSC-CMs (Q14524 212-1075 limits assumed): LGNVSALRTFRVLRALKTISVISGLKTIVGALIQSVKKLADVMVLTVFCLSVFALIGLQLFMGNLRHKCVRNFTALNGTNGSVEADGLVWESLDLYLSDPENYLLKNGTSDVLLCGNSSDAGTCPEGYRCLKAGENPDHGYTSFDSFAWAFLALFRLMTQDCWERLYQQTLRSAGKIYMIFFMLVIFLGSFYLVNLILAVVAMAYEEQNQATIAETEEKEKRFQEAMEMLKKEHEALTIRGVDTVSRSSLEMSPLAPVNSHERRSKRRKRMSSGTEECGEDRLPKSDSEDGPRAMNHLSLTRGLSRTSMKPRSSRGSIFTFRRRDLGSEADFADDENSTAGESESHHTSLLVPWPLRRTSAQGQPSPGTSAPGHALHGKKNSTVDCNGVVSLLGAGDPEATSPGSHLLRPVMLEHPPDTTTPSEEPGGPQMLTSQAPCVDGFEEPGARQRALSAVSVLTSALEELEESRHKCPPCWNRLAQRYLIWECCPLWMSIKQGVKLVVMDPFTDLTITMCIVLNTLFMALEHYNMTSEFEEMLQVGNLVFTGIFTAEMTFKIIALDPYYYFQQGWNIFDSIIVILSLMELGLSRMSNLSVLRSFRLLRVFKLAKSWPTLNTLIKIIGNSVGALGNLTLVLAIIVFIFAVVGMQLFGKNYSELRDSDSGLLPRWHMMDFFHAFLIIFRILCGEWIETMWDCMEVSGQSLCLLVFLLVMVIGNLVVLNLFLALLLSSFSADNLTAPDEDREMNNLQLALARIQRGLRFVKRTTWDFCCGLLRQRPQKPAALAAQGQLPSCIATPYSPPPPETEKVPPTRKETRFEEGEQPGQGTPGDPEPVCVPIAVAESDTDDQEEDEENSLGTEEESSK
Chain of INa in hiPSC-CMs (Q14524 1131-2016 limits assumed): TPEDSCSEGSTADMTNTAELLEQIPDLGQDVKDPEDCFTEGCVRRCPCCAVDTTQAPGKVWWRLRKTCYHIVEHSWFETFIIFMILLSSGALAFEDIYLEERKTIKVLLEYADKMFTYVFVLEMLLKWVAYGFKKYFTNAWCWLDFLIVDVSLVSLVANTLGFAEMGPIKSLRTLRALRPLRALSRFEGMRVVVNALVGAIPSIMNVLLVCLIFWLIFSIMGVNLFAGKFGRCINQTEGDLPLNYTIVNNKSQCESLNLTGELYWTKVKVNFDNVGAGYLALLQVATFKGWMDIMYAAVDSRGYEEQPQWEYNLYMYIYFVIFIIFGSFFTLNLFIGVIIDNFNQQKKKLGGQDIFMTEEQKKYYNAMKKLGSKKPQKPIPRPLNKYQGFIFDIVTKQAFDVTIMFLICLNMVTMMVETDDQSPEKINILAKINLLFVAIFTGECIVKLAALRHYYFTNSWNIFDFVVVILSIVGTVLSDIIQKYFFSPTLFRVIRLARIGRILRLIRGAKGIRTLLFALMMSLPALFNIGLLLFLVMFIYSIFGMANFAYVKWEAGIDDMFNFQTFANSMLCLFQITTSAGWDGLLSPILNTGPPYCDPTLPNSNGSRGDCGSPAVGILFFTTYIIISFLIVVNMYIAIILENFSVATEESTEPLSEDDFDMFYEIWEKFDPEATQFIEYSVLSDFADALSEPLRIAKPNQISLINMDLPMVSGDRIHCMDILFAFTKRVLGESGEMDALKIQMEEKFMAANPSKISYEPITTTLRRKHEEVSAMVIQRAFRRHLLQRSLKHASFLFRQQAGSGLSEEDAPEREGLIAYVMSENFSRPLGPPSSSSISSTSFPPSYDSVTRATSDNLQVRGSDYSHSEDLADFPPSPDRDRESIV

CCc1nn(CCCN2CCN(c3cccc(Cl)c3)CC2)c(=O)n1CCOc1ccccc1 [nefazodone]
Effect on Vmax [1]: significantly decreased | Block of INa, sensitivity [2]: greater sensitivity than in HEK293 cells
